Columns and labels:
[1] = target: T1, PCP2-C3 didomain of fuscachelin NRPS FscG (Thermobifida fusca, UniProt Q47NR9); assay: X-ray crystal structure, […] Å; format: binding; conditions: covalent; PPant on S2514 of PCP2; arm at C3 acceptor entrance, kept out of the active site by R2577
T1 construct: gene Tfu_1867; PCP2-C3 didomain fragment; C3 = residues 2558-2999, PPant site S2514; His-SUMO tag (pOPIN-S) cleaved; made in E. coli BL21(DE3) entD-; monomeric, two copies in the asymmetric unit, PCP2 at the acceptor site of the other chain
T1 sequence (Q47NR9 2481-3008): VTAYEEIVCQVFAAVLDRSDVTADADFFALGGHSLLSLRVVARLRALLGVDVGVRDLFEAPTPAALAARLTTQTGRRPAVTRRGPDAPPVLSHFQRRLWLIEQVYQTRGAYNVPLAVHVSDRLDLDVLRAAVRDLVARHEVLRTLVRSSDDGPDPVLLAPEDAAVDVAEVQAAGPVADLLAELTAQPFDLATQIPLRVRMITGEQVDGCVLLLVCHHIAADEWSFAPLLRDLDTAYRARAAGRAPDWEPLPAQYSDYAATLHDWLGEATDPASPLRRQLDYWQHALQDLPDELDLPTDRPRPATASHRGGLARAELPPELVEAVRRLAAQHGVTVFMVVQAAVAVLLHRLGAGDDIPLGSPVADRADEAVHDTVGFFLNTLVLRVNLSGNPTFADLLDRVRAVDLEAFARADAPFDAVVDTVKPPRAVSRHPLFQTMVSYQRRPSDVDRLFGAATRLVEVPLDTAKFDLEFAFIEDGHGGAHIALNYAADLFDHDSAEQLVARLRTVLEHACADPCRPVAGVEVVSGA

[2] = target: T2, PCP2-C3 didomain of fuscachelin NRPS FscG (Thermobifida fusca, UniProt Q47NR9, R2577G); assay: X-ray crystal structure, […] Å; format: binding; conditions: covalent; PPant on S2514 of PCP2, fully extended through the acceptor channel into the C3 active site
T2 construct: gene Tfu_1867; PCP2-C3 didomain fragment; C3 = residues 2558-2999, PPant site S2514; His-SUMO tag (pOPIN-S) cleaved; made in E. coli BL21(DE3) entD-; monomeric, two copies in the asymmetric unit, PCP2 at the acceptor site of the other chain
T2 sequence (Q47NR9 entry or part of it R2577G): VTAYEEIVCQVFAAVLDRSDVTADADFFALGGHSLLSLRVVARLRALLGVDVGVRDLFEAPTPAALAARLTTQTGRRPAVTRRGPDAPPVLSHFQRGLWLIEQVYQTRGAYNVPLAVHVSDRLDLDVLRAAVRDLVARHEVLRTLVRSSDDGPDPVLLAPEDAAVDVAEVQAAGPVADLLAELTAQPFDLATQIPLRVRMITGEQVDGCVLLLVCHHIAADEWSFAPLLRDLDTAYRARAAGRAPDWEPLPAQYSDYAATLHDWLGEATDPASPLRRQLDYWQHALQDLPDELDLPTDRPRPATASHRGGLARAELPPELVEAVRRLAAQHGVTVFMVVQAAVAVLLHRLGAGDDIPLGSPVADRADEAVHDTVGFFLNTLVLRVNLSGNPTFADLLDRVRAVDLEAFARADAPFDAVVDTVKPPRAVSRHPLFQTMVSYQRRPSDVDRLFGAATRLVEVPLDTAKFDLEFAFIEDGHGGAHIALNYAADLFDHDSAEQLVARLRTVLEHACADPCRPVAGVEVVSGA

## CC(C)(COP(=O)(O)O)[C@@H](O)C(=O)NCCC(=O)NCCS [PPant]
[1]
  X-ray crystal structure, 2.2 Å: Having confirmed the presence of a PPant arm, we modeled this into the electron density
[2]
  X-ray crystal structure, 2 Å: PPant moiety, which now fully extends thought the acceptor channel into the active site
